# Residues, ends and D or L forms follow the SMILES beside them. *: point of attachment. Cbz = O=C(OCc1ccccc1)*
# Legend:
# [1] = tested on: murine embryonic fibroblasts (MEFs); experiment: Human proinsulin delivered by adenovirus to murine embryonic fibroblasts, non-reducing SDS-PAGE; format: cell-based, mouse; settings: MEFs infected with Ad-hProins, increasing concentrations of DTT
# Procedure: Generation and culture of primary mouse embryonic fibroblast (MEF): WT C57BL/6 d14 embryos were isolated under sterile conditions and placed in 100 mm cell culture dish containing PBS. Placental and other maternal tissues were removed and the embryos were washed three times with PBS. Heads and visceral organs were removed. The heads were used for genotyping. Embryos were finely minced with a sterile razor blade and treated with 1 ml of 0.25% trypsin/EDTA (Corning) for 40 min at 37° C. DMEM medium (Corning) supplemented with 10% FBS, 1% penicillin/streptomycin, 100 μg/ml primocin and 1 mM sodium pyruvate was added to quench trypsin activity. Tissue homogenate was subsequently disaggregated by repeated pipetting, and further centrifuged to collect the fibroblast cell pallet. Cells were plated in 100 mm culture dish in DMEM medium at 37° C. in a cell culture incubator under 5% CO2. To prevent mycoplasma, bacterial, and fungal contamination, primary MEFs were cultured in medium containing 100 μg/ml primocin (InvivoGen) and used for experiments prior to passage #5.
# To study the impact of PDIA1 in the absence of C peptide processing in a more manipulatable system, the inventors analyzed human proinsulin expression delivered by adenovirus to murine embryonic fibroblasts (MEFs) that were co-infected with WT PDIA1 or PDIA1 with 4 Cys to Ser mutations in the two vicinal catalytic PDI sites. […]
# [2] = tested on: mouse pancreatic islets; experiment: Proinsulin disulfide-linked / HMW complexes in murine islets, SDS-PAGE immunoblot (CCI-17); format: cell-based; settings: islets of WT male mice on regular diet, increasing concentrations of DTT in culture
# Procedure: Mouse pancreatic islet isolation: Mice were euthanized by CO2 narcosis as per an approved institutional animal protocol. The pancreas was rapidly excised, minced in ice-cold PBS, and digested in 4 mL of Collagenase P (Roche) 1.5 mg/mL in Hank's Balanced Salt Solution containing calcium and magnesium, in a shaking water bath for 30 min at 37° C. The digestion was terminated in 40 mL ice-cold PBS (—Ca/—Mg) and the digested tissue washed twice in this buffer. The sedimented tissue digest was then overlaid with 3 mL Histopaque-1077 and further overlayed with 6 mL ice cold PBS (—Ca/—Mg) before centrifugation (3000 rpm for 20 min at 10° C. with no brake) and transfer of the midlayer of the Histopaque gradient to a 15 ml tube for two further washes in ice-cold PBS. Finally, the sedimented tissue was transferred to a petri dish in ice-cold RPMI-1640 buffer and islets hand-picked to purity. In experiments involving drug or compound treatment, the islets were finally recovered overnight in RPMI-1640 supplemented with 10% fetal bovine serum (FBS), 10 mM HEPES pH 7.35, 1 mM sodium pyruvate and 0.05 mM beta-mercaptoethanol, in a humidified 5% CO2 incubator at 37° C. For some experiments, islets were snap frozen in liquid nitrogen and stored frozen prior to analysis.
# (§1) Lysis of cells or islets for SDS-PAGE and electrotransfer: After removal of media, cells were washed once with ice-cold PBS and lysed in RIPA buffer (10 mM Tris pH 7.4, 150 mM NaCl, 0.1% SDS, 1% NP40, 2 mM EDTA) plus protease inhibitor/phosphatase inhibitor cocktail (Sigma-Aldrich) or directly in Laemmli gel sample buffer. Lysates in RIPA buffer were immediately spun at 10,000 rpm for 10 min at 4° C. and the supernatants analyzed further or stored at −80° C. Islets that had been quick frozen were placed on ice and RIPA buffer containing protease inhibitor cocktail and phosphatase inhibitor was added. Lysis was carried out by gently pipetting or by syringe through a 30G needle. Total protein concentration in the lysate was determined by BCA or Bramhall assay, and 5-10 μg of samples prepared in SDS sample were resolved by SDS-PAGE in 4-12% Bis-Tris NuPAGE gels (Invitrogen) at 200 V for 30 min. Nonreducing gels were incubated in a solution containing 20 mM dithiothreitol (DTT) for 10 min at room temperature prior to electrotransfer.
# (§2) Immunoblotting: Transfer membranes were rinsed once in TBST (15 mM Tris, 150 mM NaCl, 0.1% Tween-20), blocked using TST plus 5% BSA for 1 h at room temperature, and then washed four times (5 min each) in TBST. Primary antibody and secondary antibodies were diluted in TBST and each of […] incubations was 1 h at room temperature followed by 4 washes in TBST. On occasion, primary antibodies were incubated overnight at 4° C. Secondary antibodies were all HRP-conjugates. Development of immunoblots used enhanced chemiluminescence (Immobilon, Millipore, or SuperSignal West Pico PLUS, Thermo Fisher Scientific) with images captured using a Fotodyne gel imager.
# Islet Isolation: Islets were isolated by collagenase P (Roche) perfusion as described following by histopaque-1077 (Sigma-Aldrich, Inc. St. Louis) gradient purification. Islets were handpicked and studied directly or after overnight culture in RPMI 1640 medium (Corning 10-040-CV) supplemented with 10% FBS, 1% penicillin/streptomycin, 100 μg/m1 primocin, 10mM Hepes, and 1mM sodium pyruvate.
# Islet Western Blotting: Isolated islets were lysed in RIPA buffer (10 mM Tris pH 7.4, 150 mM NaCl, 0.1% SDS, 1% NP-40, 2mM EDTA) with protease and phosphatase inhibitors (Fisher Scientific) on ice for 10 min and lysates were collected after centrifugation at 4° C. for 10 min at 12000 g. Samples were prepared in Laemmli sample buffer without (non-reducing) or with (reducing) 5% β-mercaptoethanol. After boiling for 5 min, samples were analyzed by SDS-PAGE (4-12% Bis-Tris gel, (Bio-Rad Laboratories, Inc.)) and transferred to nitrocellulose membranes (Bio-Rad Laboratories, Inc.). […]
# [3] = tested on: INS-832/13 β-cell line; experiment: Detection of myc-tagged two-cysteine proinsulin mutants in INS-832/13 cells, nonreducing SDS-PAGE immunoblot; format: cell-based, rat; settings: MG132 10 μg/mL for 7 h
# Procedure: (§3) Cell and islet culture: Rat pancreatic beta cell lines INS1E and INS-832/13 were cultured in RPMI-1640 medium supplemented with 10% FBS, 10 mM HEPES pH 7.35, 1 mM sodium pyruvate, penicillin/streptomycin and 0.05 mM beta-mercaptoethanol. HEK293T human cells lines were cultured in DMEM supplemented with 10% FBS and penicillin/streptomycin.
# (§4) Transfection of cells: 293T cells, INS1E cells, and INS-832/13 cells at 70-80% confluency were transiently transfected using Lipofectamine 2000 (ThermoFisher) as per the manufacturer's instructions. A medium change was performed 5 h post-transfection and the cells were lysed at 36 or 48 h.
# as §1, with “Islets that had been quick frozen were placed on ice and RIPA buffer containing protease inhibitor cocktail and phosphatase inhibitor was added. Lysis was carried out by gently pipetting or by syringe through a 30G needle.” left out, “Nonreducing gels were incubated in a solution containing 20 mM dithiothreitol (DTT) for 10 min at room temperature prior to electrotransfer.” left out
# [4] = tested on: INS1E cells; experiment: Intracellular proinsulin distribution in INS1E cells, indirect immunofluorescence; format: cell-based, rat; settings: overnight PERK inhibitor, anti-proinsulin GS-9A8 and anti-calnexin
# Procedure: Immunohistochemistry/immunocytochemistry: Pancreatic paraffin sections were de-paraffinized with Citrisolv (Fisher Scientific) for 5 min at room temperature, re-hydrated in a series of 8 min ethanol incubations: 100%, 95%, 70%, and distilled water. Antigen retrieval was carried out using Retrieve-ALL 1 Universal pH 8 (BioLegend) and slides were heated in a microwave, cooled for 30 min at room temperature, and incubated once with PBS for 5 min. Blocking was performed in 150 μL blocking buffer (3% BSA prepared in TBS and 0.2% Triton X-100) per section for 2 h at room temperature. Blocking buffer was removed and 150 μL per section of primary antibody appropriately diluted in TBS plus 3% BSA and 0.2% Tween-20 was incubated overnight at 4° C. The primary antibody was removed and the slide washed twice with TBS/0.1% Tween-20. Then, 150 μL secondary antibody (1:500 dilution, prepared in antibody buffer) per section was incubated for 1 h at room temperature. Slides were washed thrice with TBS/0.1% Tween-20, mounted with a drop of prolong gold anti-fade reagent with DAPI (ThermoFisher) and a cover slip affixed. For immunocytochemistry, INS1E cells were grown in an 8-well Millicell® EZ SLIDE (Millipore-SIGMA). Cells were allowed to reach 60-80% confluency before addition of PERK inhibitor (PERKi) or vehicle. […]
# [5] = tested on: INS1E cells; experiment: Proinsulin disulfide-linked complexes in INS1E cells, nonreducing/reducing SDS-PAGE and immunoblotting (mAb CCI-17); format: cell-based, rat
# Procedure: HEK293T human cells lines were cultured in DMEM supplemented with 10% FBS and penicillin/streptomycin.
# as §1, with “Islets that had been quick frozen were placed on ice and RIPA buffer containing protease inhibitor cocktail and phosphatase inhibitor was added.” left out, “Total protein concentration in the lysate was determined by BCA or Bramhall assay, and 5-10 μg of samples prepared in SDS sample were resolved by SDS-PAGE in 4-12% Bis-Tris NuPAGE gels (Invitrogen) at 200 V for 30 min.” left out
# The lane was then laid horizontally on top of a 10% SDS-polyacrylamide resolving gel and sealed in place in stacking gel. A single-tooth comb was introduced at one end of the stacking gel to introduce a one-dimensional reduced sample of proinsulin containing cell lysate (which runs as proinsulin monomer). The gel was run at 200 V for 45 mins in Tris-Glycine buffer pH 8.8 with electrotransfer as described above.
# as §2
# [6] = tested on: 293T cells; experiment: Disulfide-linked complexes of recombinant human proinsulin in 293T cells, nonreducing SDS-PAGE immunoblot (mAb 20G11); format: cell-based; settings: overnight PERK inhibitor
# Procedure: as §3, §4
# as §1, with “Islets that had been quick frozen were placed on ice and RIPA buffer containing protease inhibitor cocktail and phosphatase inhibitor was added. Lysis was carried out by gently pipetting or by syringe through a 30G needle.” left out, “Nonreducing gels were incubated in a solution containing 20 mM dithiothreitol (DTT) for 10 min at room temperature prior to electrotransfer.” left out
# [7] = tested on: human islets; experiment: Proinsulin disulfide-linked complexes in human islets, SDS-PAGE immunoblot (mAb 20G11); format: cell-based; settings: overnight PERK inhibitor
# Procedure: Human pancreatic islets: Human islets were obtained either from Prodo Labs, or from the NIDDK-funded Integrated Islet Distribution Program (IIDP; NIH UC4-DK098085) and maintained in a humidified 5% CO2 incubator at 37° C. Human islets were cultured ex vivo for up to 96 h in Prodo PIM(R) islet19 specific tissue culture medium supplemented with 10% FBS and Prodo PIM(G) glutamine/glutathione supplement, plus penicillin/streptomycin.
# as §1, with “Nonreducing gels were incubated in a solution containing 20 mM dithiothreitol (DTT) for 10 min at room temperature prior to electrotransfer.” left out
structure (smiles),measurement,setting,value
O[C@H](CS)[C@H](O)CS (racemic) [dithiothreitol],reduced proinsulin,[1],increased the amount of reduced proinsulin
same,proinsulin monomer and dimer,[2],increasing amounts of the proinsulin monomer and residual disulfide-linked dimer
CC(C)C[C@@H](C=O)NC(=O)[C@H](CC(C)C)NC(=O)[C@H](CC(C)C)NC(=O)OCc1ccccc1 [MG132] (Cbz-Leu-Leu-Leu-aldehyde),"detection of myc-tagged proinsulin mutants (keep-B7/A7, keep-A6/A11, keep-B19/A20)",[3],myc-tagged proinsulin monomers were detected in all cases
"Cc1cccc(CC(=O)N2CCc3c2ccc(-c2cn(C)c4ncnc(N)c24)c3F)n1 [PERK inhibitor, GSK2656157]",intracellular proinsulin distribution,[4],shifted its distribution to the classic impacted-ER phenotype
same,disulfide-linked proinsulin complexes as share of all recovered proinsulin,"[5]; INS1E cells treated with PERK inhibitor, 2D nonreducing/reducing SDS-PAGE",87%
same,intracellular proinsulin in disulfide-linked complexes with increasing time of exposure,"[5]; INS1E cells, PERK inhibitor for last 0, 5, 10 or 20 h",the majority of intracellular proinsulin accumulated in disulfide-linked complexes
same,intracellular accumulation of proinsulin,"[5]; INS1E cells, PERK inhibitor overnight (GSK2656157, 2 μM) vs vehicle DMSO",dramatically increased
same,insulin content,"[5]; INS1E cells, PERK inhibitor up to 20 h",decreased insulin content
same,proinsulin secretion,"[5]; INS1E cells, PERK inhibitor up to 20 h, media",decreased proinsulin secretion
same,secretion of proinsulin to the medium,"[5]; INS1E cells, overnight PERK inhibitor, nonreducing SDS-PAGE of media",not increased
same,disulfide-linked proinsulin dimers and higher-order complexes of recombinant human proinsulin,[6],accumulated to a dramatically higher level
same,higher order disulfide-linked proinsulin complexes,[7]; nonreducing SDS-PAGE,further increase in higher order disulfide-linked complexes
same,total islet proinsulin,[7]; reducing SDS-PAGE,increase in total islet proinsulin

# Source: patent US20220299532A1, “CORRECTING PROTEIN MISFOLDING IN DIABETES” (Sanford Burnham Prebys Medical Discovery Institute, priority 2019, published 2022)
